Columns and labels:
Assay type in all cases: cell-based
[1] = system: CCDC6-RET, NCOA4-RET, and FGFR1OP-RET; test: RET phosphorylation Western blot in NIH3T3 cells, rearranged RET; details: 2 h
Description: Fibroblasts transfected with RET/C634R were treated with increasing doses of NPA101.3, ranging from 0.1 to 10.0 nM. RET autophosphorylation was assessed by Western blotting using two different antibodies that can recognize phosphorylated Y905, located in the RET kinase activation loop, or Y1062, a multidocking site involved in RET downstream signaling.[41]
Figure 4 NPA101.3-mediated inhibition of phosphorylation and signaling of oncogenic RET mutants and VEGFR2 in intact cells. Serum-starved RAT1 cells exogenously expressing the (A and B) indicated RET point mutants or (C) NIH3T3 cells exogenously expressing the indicated RET rearranged mutants were treated for 2 h with the indicated concentrations of the compound. Total cell lysates (50 μg) were subjected to immunoblotting with anti-phospho-Y1062 (αp1062) and anti-phospho-Y905 (αp905) RET antibodies. The blots were normalized using the anti-RET (αRET) antibody. (D) HEK293 cells were transiently transfected with human VEGFR2; 36 h after transfection, cells were serum starved for 12 h. The indicated doses of the compound or vehicle (NT) were added for 2 h, and then VEGFA (100 ng/mL) stimulation was applied for 15 min. […]
Protein lysates were prepared according to standard procedures. […] Immune complexes were detected with the enhanced chemiluminescence kit (Amersham Pharmacia Biotech, Little Chalfont, U.K.). […]

[2] = system: cells negative for RET oncogenes; test: Growth inhibition, cells negative for RET oncogenes (summary); details: doses of ≤100 nM
Description: Finally, NPA101.3 featured efficacy already at 1 mg/kg/day in RET-driven tumors in nude mice. […] Therefore, though in a therapeutic setting toxicity may be increased by hitting multiple targets, it is feasible that the activity of the NPA101.3 against RET-driven tumors may take advantage of a synergistic combination of cell autonomous (on tumor cell growth mediated by RET inhibition) and non-cell autonomous (on blood vessel formation mediated by VEGFR2 inhibition) effects, potentiating its effect and reducing the chances of resistance development. Several TKIs with anti-RET activity are available, and some are already registered for the treatment of different types of thyroid cancers. […]
Nthy-ory-3-1 (10000 per well), TPC-1 (10000 per well), MZ-CRC-1 (100000 per well), TT (200000 per well), Lc-2/ad (100000 per well), BCPAP (10000 per well), 8505-C (10000 per well), PC-9 (10000 per well), A549 (10000 per well), CALU-1 (10000 per well), NIH3T3 RET/C634Y (10000 per well), and NIH3T3 HRAS/G12V (10000 per well) were seeded in six-well tissue culture plates. […] Cells were counted every day (Ba/F3), every 2 days (fibroblasts), or every 2–3 days (human cell lines). […] IC50 doses were calculated through a curve fitting analysis from last day of growth curves using the PRISM software program (Graphpad Software Inc.).

NIH3T3 HRAS/G12V cells = test: Cell growth curves, transformed NIH3T3; details: up to 100.0 nM
Description: Nthy-ory-3-1 (10000 per well), TPC-1 (10000 per well), MZ-CRC-1 (100000 per well), TT (200000 per well), Lc-2/ad (100000 per well), BCPAP (10000 per well), 8505-C (10000 per well), PC-9 (10000 per well), A549 (10000 per well), CALU-1 (10000 per well), NIH3T3 RET/C634Y (10000 per well), and NIH3T3 HRAS/G12V (10000 per well) were seeded in six-well tissue culture plates. Cells were kept in 2% (TPC-1), 5% (Nthy-ori-3-1), or 10% (BCPAP, 8505-C, CALU-1, A549, PC-9, TT, MZ-CRC-1, and Lc-2/ad) fetal calf serum or in 2% (NIH3T3 RET/C634Y and HRAS/G12V) calf serum. Ba/F3 cells (200000 per well in 2 mL) were seeded in six-well tissue culture plates and kept in 10% fetal calf serum. The day after plating, different concentrations of the drug or vehicle were added to the medium and changed every 2–3 days. Cells were counted every day (Ba/F3), every 2 days (fibroblasts), or every 2–3 days (human cell lines). […] IC50 doses were calculated through a curve fitting analysis from last day of growth curves using the PRISM software program (Graphpad Software Inc.).
Supplementary Figure S9: NPA101.3-mediated inhibition of proliferation of RET-transformed NIH3T3 cells […] Serum-starved NIH3T3 cells exogenously expressing the RET/C634Y or HRAS/G12V oncogenes were incubated with vehicle (NT: not treated) or the indicated concentrations of the compound and counted at the indicated time points. […]

CC(C)(C)c1cc(NC(=O)Cc2ccc(-n3cnc4cc(-c5ccc(S(C)(=O)=O)cc5)ccc43)cc2)no1 [NPA101.3]
phosphorylation of rearranged RET oncoproteins [1]: highly sensitive | growth effect in cells negative for RET oncogenes [2]: no detectable effect | effect on proliferation of NIH3T3 HRAS/G12V cells (NIH3T3 HRAS/G12V cells): virtually no effect

Source: article PMC7901654, “Bioisosteric Discovery of NPA101.3, a Second-Generation RET/VEGFR2 Inhibitor Optimized for Single-Agent Polypharmacology” (Journal of Medicinal Chemistry, 2020)
